Here are results for 3 compounds from patent US8980796B2, “Crystal modification of Mesotrione” (Agan Chemical Manufacturers Ltd., priority 2009, dated 2015).

Entries after “also recorded” stand apart in the source; their conditions may differ. Read-outs that look alike come from different tables or passages of the source.

In one data set the test system is corn varieties. Description: Selectivity pot trials, overall phytotoxicity on crops. Format: in vivo. To be noted: corn varieties tested; 3500 ml/ha (equivalent to 350g a.i./ha). The method, then:
The selectivity of two Mesotrione 100SC (containing 100 g/l mesotrione) formulations was compared for two crystal modifications (1 and 3).
The test was performed on three corn varieties. The corn varieties were sown in plastic pots (400 cc) filled with heavy soil. Each treatment was sprayed in 5 replicates. The trial was performed in a glasshouse with controlled temperature (20-30°).
Post emergence spraying was performed two weeks after sowing. The trials were sprayed with a mechanical sprayer, with a spray volume of 200 L/ha (equivalent to 3500 ml/ha mesotrione 100SC). The plants were irrigated 24 H (hours) after spraying. Selectivity evaluations were conducted during the trial according to the following scale: • 0=Crop completely dead (necrotic). • 100=Plants without any phytotoxic damage.

For data set [1] the following is noted: per WO 2007/083242, WO 2006/021743, cited from earlier work.

`CS(=O)(=O)c1ccc(C(=O)C2C(=O)CCCC2=O)c([N+](=O)[O-])c1` [Mesotrione form 3, 2-[4-(methylsulfonyl)-2-nitrobenzoyl]-1,3-cyclohexanedione]: in the data set with corn varieties, the “phytotoxicity on crops as compared to mesotrione form 1” value is reported as “decreased phytotoxicity; also recorded: low phytotoxicity”.

Consider `CS(=O)(=O)c1ccc(C(=O)C2C(=O)CCCC2=O)c([N+](=O)[O-])c1` [Mesotrione form 1, 2-[4-(methylsulfonyl)-2-nitrobenzoyl]-1,3-cyclohexanedione], for which the “thermodynamic stability of the polymorphic form” value in data set [1] (listed as Form 1) is reported as “thermodynamically stable”. Regarding `CS(=O)(=O)c1ccc(C(=O)C2C(=O)CCCC2=O)c([N+](=O)[O-])c1` [Mesotrione form 2, 2-[4-(methylsulfonyl)-2-nitrobenzoyl]-1,3-cyclohexanedione], the “thermodynamic stability of the polymorphic form” value in data set [1] (listed as Form 2) is reported as “thermodynamically unstable”.
